{
  "source": "patent US8273718B2",
  "about": "“Composition for prevention or treatment of bone metabolism disorder comprising D-pinitol as an active ingredient” (Solgent Co., priority 2007, dated 2012)",
  "key": {"Raw264.7 cells [1]": {"tested_on": "Raw264.7 cells", "experiment": "Cytotoxicity of D-pinitol on Raw264.7 cells (cell number count)", "format": "cell-based", "conditions": "0-50 mM, cell number counted for 3 days at 24 hrs intervals; up to maximum 50 mM", "procedure": "To verify the cytotoxicity of D-pinitol to Raw264.7 cell, Raw264.7 cells were grown on 96-well plate until 0.5×10^3 cells/200 μl. Cells were cultured for 3 days while treating with D-pinitol at concentrations of 1, 3.5, 7, 12.5, 25 and 50 mM respectively. Cell number increased during 3 days of culture was counted to determine the cytotoxicity of added compounds.\nThe present inventors examined the cytotoxicity of D-pinitol at various concentrations. Influence of D-pinitol to cell proliferation was examined by treating Raw264.7 cells with various concentrations of D-pinitol. Osteoclast progenitor cell line, Raw264.7 cells were cultured and treated with D-pinitol in a range of 0-50 mM concentration. The number of survived cells was counted for 3 days at 24 hrs intervals."}, "[2]": {"tested_on": "bone marrow-derived osteoclast", "experiment": "Differentiation of bone marrow-derived osteoclast, TRAP solution assay", "format": "cell-based, mouse", "procedure": "TRAP solution assay of TRAP positive cells were carried out according to the following method. Medium was removed, 100 μl of 10% formalin was added and incubated for 10 min at room temperature. After 100 μl of methanol/acetone was added, incubated for 1 min at room temperature, and then dried. TRAP substrate solution comprising a tablet of pNPP (p-nitrophenylphosphate) dissolved in 20 ml of TRAP buffer (pH 5.2) was added into and incubated for 20-30 min at 37° C. 100 μl of TRAP substrate solution was transferred to a new 96-well plate in which 50 μl of 1N NaOH was contained. Finally, OD (optical density) value was measured at 405 nm. To extract mouse bone marrow cells, thighbone and shinbone of male C57BL/6 mouse at 3-4 weeks of age were aseptically enucleated and their soft tissues were eliminated. Both end of long bone was cut in extracted bone tissues and then bone marrow cells were collected by injecting α-MEM/10% FBS into bone marrow cavity at one end using a 26G injection syringe. Collected bone marrow cells were subjected to 5 ng/ml of M-CSF and incubated for 16 hrs. Unattached cells on plate bottom were harvested. […] To determine inhibitory effect of D-pinitol on osteoclastogenesis, osteoclast derived from bone marrow primary cells was analyzed using TRAP solution assay."}, "[3]": {"tested_on": "bone marrow-derived osteoclast", "experiment": "Bone resorption-degradative potential of osteoclast on bone fragments (toluidine blue staining)", "format": "cell-based, mouse", "procedure": "To examine the effect of D-pinitol on degradative potential of osteoclast in the bone resorption process, fragment of tooth bone was added in 96-well plate and then bone marrow cells were cultured until 1.0×10^5 cells/200 μl. For the differentiation of osteoclast, 50 ng/ml of M-CSF and 200 ng/ml of sRANKL were added. D-pinitol was added to the media in a concentration-dependent manner and incubated for 4 days. Where the differentiation of osteoclast was observed after completing the culture, cells were removed in bone fragment and observed in microscope via 1% toluidine blue staining. To investigate the effect of D-pinitol on the bone resorption-degradative potential of osteoclast, cells were treated with D-pinitol in the range of 0-50 mM during the differentiation into osteoclast on bone fragments which were obtained from human teeth."}, "[4]": {"tested_on": "bone marrow-derived osteoclast", "experiment": "Osteoclast differentiation in respective stages of osteoclastogenesis", "format": "cell-based, mouse", "conditions": "from 2 days after culture, not less than 25 mM", "procedure": "To examine the effect of D-pinitol on osteoclast at each stage of culturing, D-pinitol was added to the culture media of osteoclast with various concentrations. D-pinitol-treated osteoclast was separated at each cultured time and then amount of differentiated osteoclast was analyzed using TRAP solution assay. To analyze the effect of D-pinitol on respective stages of differentiation of bone marrow-derived osteoclast, the differentiation state of osteoclast, which has been cultured in the presence of various concentration of D-pinitol, was estimated in a time-dependent course. […] It could be also understood that D-pinitol affects in the cell-fusion stage of the osteoclastogenesis."}, "Raw264.7 cells [5]": {"tested_on": "Raw264.7 cells", "experiment": "Osteoclastogenesis of Raw264.7 cells, TRAP staining", "format": "cell-based", "procedure": "Raw264.7 cells were cultured in α-MEM (α-minimal essential medium) containing 10% FBS (fetal bovine serum). In the experiment of examining osteoclastogenesis, cells were adjusted to 2.0×10^3 cells/200 μl on 96-well plate and incubated with 200 ng/ml of sRANKL. TRAP (tartrate resistant acid phophatase) staining and TRAP solution assay were carried out at forth day after culturing cells for 3 days with treatment of D-pinitol at concentrations of 1, 3.5, 7, 12.5, 25 and 50 mM respectively. Cells were fixed for TRAP staining and TRAP solution assay. TARP positive multinuclear (more than 3 nuclei) cells were counted as an osteoclast-like cell. Cells were observed using Leica DM IRM microscope. For cytochemical staining of TRAP positive cell, medium was removed. After that, 100 μl of 10% formalin was added to cells and incubated for 10 min at room temperature. 100 μl of methanol/acetone was added and incubated for 1 min at room temperature. Cells were stained with 10 ml of TRAP buffer (Tris-HCl, pH 4.5, EDTA), naphthol AS phosphate (substrate, Sigma #N-4875) and 5 mg of Fast Red Violet dye (Sigma, F-1625). 1 mg of naphthol AS phosphate dissolved in […] of N, N-dimethyl formide (DMF, Sigma #319937) was used. The reaction was performed for 10-30 min and then red color was observed. Where red color is clearly observed, it was washed with flowing water and dried. […] Raw264.7 cell line was treated with 200 ng/ml of RankL for 4 days. […] To quantitate inhibitory activity of D-pinitol in osteoclastogenesis of Raw264.7 cells, multinucleate cell number was measured via TRAP staining according to various treatment concentration of D-pinitol. […] Therefore, it could be understood that D-pinitol was a substance to inhibit osteoclastogenesis of Raw264.7 cell. D-pinitol inhibited osteoclastogenesis almost 100% at a concentration of 50 mM."}, "Raw264.7 cells [6]": {"tested_on": "Raw264.7 cells", "experiment": "Osteoclastogenesis of Raw264.7 cells, TRAP solution assay", "format": "cell-based", "conditions": "RankL", "procedure": "Raw264.7 cells were cultured in α-MEM (α-minimal essential medium) containing 10% FBS (fetal bovine serum). In the experiment of examining osteoclastogenesis, cells were adjusted to 2.0×10^3 cells/200 μl on 96-well plate and incubated with 200 ng/ml of sRANKL. TRAP (tartrate resistant acid phophatase) staining and TRAP solution assay were carried out at forth day after culturing cells for 3 days with treatment of D-pinitol at concentrations of 1, 3.5, 7, 12.5, 25 and 50 mM respectively. Cells were fixed for TRAP staining and TRAP solution assay. TARP positive multinuclear (more than 3 nuclei) cells were counted as an osteoclast-like cell. Cells were observed using Leica DM IRM microscope. TRAP solution assay of TRAP positive cells were carried out according to the following method. Medium was removed, 100 μl of 10% formalin was added and incubated for 10 min at room temperature. After 100 μl of methanol/acetone was added, incubated for 1 min at room temperature, and then dried. TRAP substrate solution comprising a tablet of pNPP (p-nitrophenylphosphate) dissolved in 20 ml of TRAP buffer (pH 5.2) was added into and incubated for 20-30 min at 37° C. 100 μl of TRAP substrate solution was transferred to a new 96-well plate in which 50 μl of 1N NaOH was contained. Finally, OD (optical density) value was measured at 405 nm. […]"}, "[7]": {"tested_on": "co-culture of osteoblast and bone marrow-derived osteoclast", "experiment": "Osteoclastogenesis in co-culture of osteoblast and bone marrow cells, TRAP staining", "format": "cell-based, mouse", "procedure": "To prepare a primary osteoblast of mice, frontal bone and parietal bone of fetal mice at 1 day of age were aseptically enucleated. After washing enucleated bone tissue with PBS solution, it was subsequently treated with mixed-enzyme solution (0.2% collagenase and 0.1% dispase) 6 times at 20 min intervals. Cells having the property of osteoblast were harvested and then washed with culture solution. Washed cells were cultured in α-MEM containing 10% serum for 3 days and used as a primary osteoblast. Co-culture was carried out in a manner that 1.0×10^4 cells/200 μl of osteoblast and 1.0×10^5 cells of bone marrow cells were cultured on 96-well plate with vitamin D3 (10^−6M) and prostagrandin E2 (PGE2, 10^−8M) for 5 days. After culturing, TRAP staining was performed. Osteoblast was extracted from mouse skull and then co-cultured with hematopoietic stem cells of bone marrow in order to induce the differentiation of osteoclast. The effect of D-pinitol on osteoclastogenesis was investigated by treating cells with D-pinitol with a range of 0-50 mM during the differentiation-inducing process."}, "[8]": {"tested_on": "bone marrow-derived osteoclast", "experiment": "Differentiation of bone marrow-derived osteoclast, TRAP staining", "format": "cell-based, mouse", "procedure": "For cytochemical staining of TRAP positive cell, medium was removed. After that, 100 μl of 10% formalin was added to cells and incubated for 10 min at room temperature. 100 μl of methanol/acetone was added and incubated for 1 min at room temperature. Cells were stained with 10 ml of TRAP buffer (Tris-HCl, pH 4.5, EDTA), naphthol AS phosphate (substrate, Sigma #N-4875) and 5 mg of Fast Red Violet dye (Sigma, F-1625). 1 mg of naphthol AS phosphate dissolved in […] of N, N-dimethyl formide (DMF, Sigma #319937) was used. The reaction was performed for 10-30 min and then red color was observed. Where red color is clearly observed, it was washed with flowing water and dried. […] To extract mouse bone marrow cells, thighbone and shinbone of male C57BL/6 mouse at 3-4 weeks of age were aseptically enucleated and their soft tissues were eliminated. Both end of long bone was cut in extracted bone tissues and then bone marrow cells were collected by injecting α-MEM/10% FBS into bone marrow cavity at one end using a 26G injection syringe. Collected bone marrow cells were subjected to 5 ng/ml of M-CSF and incubated for 16 hrs. Unattached cells on plate bottom were harvested. For the induction of the differentiation of bone marrow-derived osteoclast, bone marrow cells of 1.0×10^5 cells per well were cultured with α-MEM/10% FBS in the presence of 200 ng/ml of sRANKL and 50 ng/ml of M-CSF. D-pinitol was added to media at various concentrations during culture. Three experiments were carried out at each concentration and media were replaced at third day after grown in complete media containing sRANKL, M-CSF and D-pinitol. […] To investigate the effect of D-pinitol on the osteoclast differentiation from bone marrow-derived monocyte, hematopoietic stem cells were extracted from bone marrow and activated for 1 day by M-CSF (5 ng/ml), resulting in induction of the differentiation into mononuclear cells. […] To quantitate the effect of D-pinitol in osteoclatogenesis of bone marrow-derived monocyte, osteoclast cell number within sample was measured using TRAP staining. […]"}, "[9]": {"tested_on": "bone marrow-derived hematopoietic stem cells", "experiment": "Cytotoxicity of D-pinitol on bone marrow hematopoietic stem cells (CCK8)", "format": "cell-based, mouse", "procedure": "To investigate the cytotoxicity of D-pinitol to a bone marrow cell, bone marrow cells were adjusted to 1.0×10^5 cells/200 μl on 96-well plate and co-cultured with 50 ng/ml of M-CSF. Then, cultured cells were grown for 4 days while treating with D-pinitol at concentrations of 1, 3.5, 7, 12.5, 25 and 50 mM respectively. Cytotoxicity was measured using CCK8 kit (Cell Counting Kit-8, Dojindo, Japan). 10% CCK8 solution was added to culture solutions according to each culture time and incubated for 2 hrs at 37° C. After culturing, an absorbance was measured at 450 nm using Microplate reader (Bio-Rad).\nTo extract mouse bone marrow cells, thighbone and shinbone of male C57BL/6 mouse at 3-4 weeks of age were aseptically enucleated and their soft tissues were eliminated. Both end of long bone was cut in extracted bone tissues and then bone marrow cells were collected by injecting α-MEM/10% FBS into bone marrow cavity at one end using a 26G injection syringe. Collected bone marrow cells were subjected to 5 ng/ml of M-CSF and incubated for 16 hrs. Unattached cells on plate bottom were harvested.\nThe instant inventors examined the cytotoxicity of D-pinitol on hematopoietic stem cells. […] After that, the proliferation-induced cells were treated with D-pinitol at a range of 0-50 mM and the effect of D-pinitol on cell proliferation was determined by measuring CCK8 enzyme activity. […]"}},
  "data": [
    {"compound": "COC1C(O)C(O)C(O)C(O)C1O", "note": "[D-pinitol]", "values": [
      {"measurement": "Raw264.7 cell cytotoxicity", "setting": "Raw264.7 cells [1]", "value": "not observed"},
      {"measurement": "inhibitory effect on differentiation of bone marrow-derived osteoclast", "setting": "[2]", "value": "also observed"},
      {"measurement": "bone resorption-degradative potential of osteoclast", "setting": "[3]; 0-50 mM, increasing concentration, bone fragments from human teeth", "value": "remarkably decreased"},
      {"measurement": "bone resorption-degradative potential of osteoclast", "setting": "[3]; not less than 25 mM", "value": "dramatically decreased"},
      {"measurement": "differentiation of bone marrow-derived osteoclast", "setting": "[4]", "value": "remarkably inhibited"},
      {"measurement": "inhibition at 50000 µM", "setting": "Raw264.7 cells [5]; Mus musculus, RAW264.7, 50 mM, multinucleate cell count by TRAP staining", "value": "~100", "unit": "%"},
      {"measurement": "osteoclastogenesis (TRAP staining photographs)", "setting": "Raw264.7 cells [5]; RankL 200 ng/ml, 4 days, increasing concentration up to 50 mM", "value": "significantly impaired"},
      {"measurement": "multinucleate cell number", "setting": "Raw264.7 cells [5]; RankL 200 ng/ml, increasing concentration of D-pinitol", "value": "significantly decreased"},
      {"measurement": "inhibitory activity in TRAP solution assay versus counting multinucleate cell number", "setting": "Raw264.7 cells [6]", "value": "relatively weaker"},
      {"measurement": "cell number of multinucleated osteoclast", "setting": "[7]; 0-50 mM, increasing concentration", "value": "significantly decreased"},
      {"measurement": "osteoclastogenesis", "setting": "[7]; 50 mM", "value": "clearly inhibited"},
      {"measurement": "number of TRAP-stained osteoclast", "setting": "[8]; 0-50 mM, RankL 200 ng/ml and M-CSF 50 ng/ml, 4 days", "value": "decreased in proportion to the concentration"},
      {"measurement": "inhibition at 50000 µM", "setting": "[8]; Mus musculus, Osteoclast, 50 mM, bone marrow-derived monocyte, read-out: inhibition of osteoclastogenesis", "value": "~100", "unit": "%"},
      {"measurement": "concentration from which a remarkable decrease of multinucleate cell number was observed", "setting": "[8]; TRAP staining count", "value": 25, "unit": "mM"},
      {"measurement": "effect on CCK8 activity", "setting": "[9]; 0-50 mM, M-CSF 50 ng/ml", "value": "no effect"},
      {"measurement": "influence on proliferation of hematopoietic stem cells", "setting": "[9]; not more than 50 mM", "value": "no influence"}
    ]}
  ]
}
